Data from PMC7470163, “Effects of ticagrelor on the pharmacokinetics of rivaroxaban in rats” (Pharmaceutical Biology, 2020).
Like-named read-outs stand apart in the source and are kept apart here. Values belong to the compound of their own block, whether it stands above or below them.

What was measured:
[1] = set-up: method as in Becker et al. [2011]; details: PLATO study; ref Becker et al. [2011]; cited from earlier work
[2] = test system: CYP3A4 (4-hydroxylation of midazolam); set-up: method as in Zhou et al. [2011]; details: read-out: IC50 (inhibition of 4-hydroxylation of midazolam); in vitro; ref Zhou et al. [2011]; cited from earlier work
[3] = test system: rivaroxaban metabolism in RLMs; assay: In vitro interaction study: inhibition of rivaroxaban metabolism by ticagrelor in RLMs; type: in vitro ADME, Sprague-Dawley rat; details: read-out: IC50 (ticagrelor decreased rivaroxaban metabolic clearance)
Description: The pooled rat liver microsomes (RLMs) were obtained from 8 rats, which were weighed and homogenized with cold […] phosphate-buffered saline (PBS) containing 0.25 mM sucrose. After centrifuging at 11000 rpm for 15 min, the supernatants were separated and transferred into new tubes for another 15 min centrifugation at 11000 rpm. Then ultracentrifugation was performed at 10000 rpm at 4 °C for 1 h, and the microsomal pellets were resuspended with cold 0.01 mM PBS and stored at −80 °C. The protein concentration of RLMs was determined using the Bradford Protein Assay Kit (Thermo Scientific, Waltham, MA, USA).
Ticagrelor was applied as the inhibitor to determine the half-maximal inhibitory concentration (IC50). The incubation mixture in a total volume of 200 μL contained 0.5 mg/mL of RLMs, 100 mM potassium phosphate buffer (pH 7.4), rivaroxaban (20 μM), ticagrelor (1, 2.5, 5, 10, 25, 50 and 100 μM) and 1 mM NADPH. After preincubation in a shaking water bath at 37 °C for 5 min, NADPH was added to initiate the reaction in a final volume of 200 μL. […]
The GraphPad (version 8.0; GraphPad Software Inc., San Diego, CA, USA) was applied to calculate IC50 and plot plasma concentration-time curves. The pharmacokinetic parameters using non-compartmental analysis were calculated by DAS (version 3.2.8; Wenzhou Medical University, China). […]

[4] = set-up: method as in Mueck et al. [2013]; details: co-administration of ketoconazole; ref Mueck et al. [2013]; cited from earlier work
[5] = set-up: method as in Mega et al. [2012]; details: low-dose rivaroxaban (2.5 mg or 5 mg twice daily) co-administered with DAPT; ref Mega et al. [2012]; cited from earlier work
[6] = test system: CYP3A4; set-up: method as in Kvasnicka et al. [2017]; details: ref Kvasnicka et al. [2017]; cited from earlier work
[7] = In vivo pharmacokinetic experiment: oral rivaroxaban in rats with or without ticagrelor pre-treatment (plasma, UPLC-MS/MS); set-up: species or system Sprague-Dawley rats; details: for AUC(0-t) / AUC(0-inf) / Cmax / half-life / MRT inf / MRT last: po; for MRT inf: read-out: MRT (0–∞); for MRT last: read-out: MRT(0–t); for CLint scaled: read-out: CL (text: intrinsic clearance) (converted)
Description: Chromatographic separation was performed using the Acquity UPLC system (Waters Corp., Milford, MA, USA) and ACQUITY UPLC HSS T3 column (2.1 × 100 mm, 1.8 μm) at 40 °C. The mobile phase comprising acetonitrile (A) and 0.1% formic acid water (B) was set with a flow rate of 0.40 mL/min. The gradient programme was applied as follows: 0–0.5 min, 30% A; 0.5–1 min, 30–95% A; 1–2 min, 95% A; […], 95% A; 2.5–2.6 min, 95–30% A; 2.6–3 min, 30% A. The total time required for analysis was 3 min. The sample manager underwent a strong wash (methanol water, 50/50, V/V) and a weak wash (methanol water, 10/90, V/V) after each injection.
XEVO TQD triple quadrupole mass spectrometer was equipped with electrospray ionization (ESI), and multiple-reaction monitoring (MRM) mode was selected for quantization. The precursor ion and product ion were m/z 435.93→144.81 for rivaroxaban and m/z 285.1→193.1 for diazepam (internal standard, IS), respectively. The optimal MS parameters were defined as follows: the cone voltages were set at 35 V and 50 V for rivaroxaban and IS; the collision energies were set at 30 V and 25 V for rivaroxaban and IS. Masslynx 4.1 software (Waters Corp., Milford, MA, USA) was used for data acquisition, and the UPLC-MS/MS chromatogram of blank plasma that was spiked with rivaroxaban and IS was shown below (Figure 2).
Ten specific pathogen-free (SPF) grade Sprague–Dawley rats (male, 220 ± 20 g) were provided by Wenzhou Medical University Laboratory Animal Research Centre. All experimental procedures and protocols were reviewed and approved by the Animal Care and Use Committee of Wenzhou Medical University and were in accordance with the Guide for the Care and Use of Laboratory Animals (ID Number: wydw2019-650). Ten rats were randomly divided into two groups: the ticagrelor group (n = 5) and the control group (n = 5). Rats were bred at 25 °C with 60 ± 5% humidity and a 12 h dark/light cycle. Enough tap water and normal chow were provided ad libitum. The rats were placed under the above conditions for one week before initiating the experiment.
The ticagrelor group was pre-treated with ticagrelor by oral gavage at a dose of 10 mg/kg/day (dissolved in CMC-Na solution) for two weeks before the administration of rivaroxaban. The control group also received equal amounts of the vehicle (CMC-Na solution). Rivaroxaban was dissolved in dimethyl sulfoxide (DMSO) and was then diluted with polyethylene glycol 200 so that DMSO accounted for 5% of the total volume. Each group of rats was given an oral gavage of rivaroxaban at a dose of 10 mg/kg, and then blood was collected via the rat’s tail vein for analysis at 0.083, 0.25, 0.5, 1, 2, 3, 4, 6, 8, 12 and 24 h. Samples were collected into 1.5 mL centrifuge tubes and were immediately centrifuged at 4000 rpm for 10 min.
Every 100 µL of rat plasma was added with 200 µL of acetonitrile in 0.5 μg/mL of IS, followed by vortex mixing for 1 min. After centrifugation at 13000 rpm for 15 min, 5 µL of supernatant was prepared for UPLC-MS/MS system to analyse.
The GraphPad (version 8.0; GraphPad Software Inc., San Diego, CA, USA) was applied to calculate IC50 and plot plasma concentration-time curves. The pharmacokinetic parameters using non-compartmental analysis were calculated by DAS (version 3.2.8; Wenzhou Medical University, China). Statistical comparisons within groups were conducted by SPSS (version 25.0; SPSS Inc., Chicago, IL, USA), using Student’s t-test. Values of p < 0.05 were considered statistically significant.

[8] = set-up: method as in Eriksson et al. [2009]; Altena et al. [2014]; details: with CYP3A4 inducer rifampicin; ref Eriksson et al. [2009]; Altena et al. [2014]; cited from earlier work
[9] = test system: rat liver microsomes (RLMs); assay: Enzyme kinetics of rivaroxaban metabolism in rat liver microsomes; type: in vitro ADME, Sprague-Dawley rat; details: RLMs 0.5 mg/mL, 30 min, 37 °C, 1 mM NADPH, R squared 0.979
Description: (§1) The pooled rat liver microsomes (RLMs) were obtained from 8 rats, which were weighed and homogenized with cold […] phosphate-buffered saline (PBS) containing 0.25 mM sucrose. After centrifuging at 11000 rpm for 15 min, the supernatants were separated and transferred into new tubes for another 15 min centrifugation at 11000 rpm. Then ultracentrifugation was performed at 10000 rpm at 4 °C for 1 h, and the microsomal pellets were resuspended with cold 0.01 mM PBS and stored at −80 °C. The protein concentration of RLMs was determined using the Bradford Protein Assay Kit (Thermo Scientific, Waltham, MA, USA). […] The incubation time was 30 min. Incubations were initiated following a 5 min pre-incubation in a shaking water bath at 37 °C. 1 mM NADPH was added to initiate the reaction in a final volume of 200 μL. The reaction was stopped immediately by cooling to −80 °C. After that, 20 μL IS working solution and 200 μL acetonitrile were added. Centrifugation was performed at 13000 rpm for 5 min after vortexing for 1 min, and the supernatant was collected. Each incubation sample study was performed in separate EP tubes, performed in triplicate and analysed by UPLC-MS/MS. We selected 2 μL of RLMs with a concentration of 0.5 mg/mL in PBS for 30 minutes as the condition for enzyme kinetic studies. […]

[10] = as above; type: in vitro ADME, Sprague-Dawley rat; details: Sprague-Dawley, rat, rat liver microsomes, pH 7.4, RLMs 0.5 mg/mL, 37 °C, 1 mM NADPH, R squared 0.979
Description: as §1

[11] = test system: CYP2J2; set-up: method as in Kvasnicka et al. [2017]; details: ref Kvasnicka et al. [2017]; cited from earlier work
[12] = set-up: method as in Abrams and Emerson [2009]; details: phase I trials; ref Abrams and Emerson [2009]; cited from earlier work
[13] = set-up: method as in Teng and Butler [2013]; details: concomitant use of ticagrelor; ref Teng and Butler [2013]; cited from earlier work
[14] = set-up: method as in Butler and Teng [2011]; details: oral administration of ticagrelor, healthy volunteers; ref Butler and Teng [2011]; cited from earlier work
[15] = male, Sprague-Dawley, rat, plasma, 10 mg/kg, rivaroxaban 10 mg/kg oral, rats pre-treated with ticagrelor 10 mg/kg/day for 14 days
[16] = male, Sprague-Dawley, rat, plasma, 10 mg/kg, rivaroxaban 10 mg/kg oral, rats, control group (no ticagrelor)
[17] = male, Sprague-Dawley, rat, plasma, 10 mg/kg, rivaroxaban 10 mg/kg oral, rats, without ticagrelor pre-treatment
[18] = male, Sprague-Dawley, rat, plasma, rivaroxaban 10 mg/kg oral, rats, control group (no ticagrelor)
[19] = rats, oral ticagrelor 10 mg/kg/day for 14 days vs control
[20] = rivaroxaban 10 mg/kg oral, rats pre-treated with ticagrelor 10 mg/kg/day for 14 days

SMILES: COC(=O)[C@H](c1ccccc1Cl)N1CCc2sccc2C1 [clopidogrel]
non-CABG major bleeding [1]: 3.8% | non-procedure-related major bleeding [1]: 2.3%

IC50 [3]: 14 µM
SMILES: CCCSc1nc(N[C@@H]2C[C@H]2c2ccc(F)c(F)c2)c2nnn([C@@H]3C[C@H](OCCO)[C@@H](O)[C@H]3O)c2n1 [ticagrelor, Ticagrelor]
IC50 [2]: […] | non-CABG major bleeding [1]: 4.5% | non-procedure-related major bleeding [1]: 3.1%

AUC(0-t) ([7]; male, Sprague-Dawley, rat, plasma, 10 mg/kg, rivaroxaban 10 mg/kg oral single dose, rats pre-treated with ticagrelor 10 mg/kg/day oral for 14 days, n=5, mean ± SD): 3480 ± 754 ng·h/mL | AUC(0-t) ([7]; male, Sprague-Dawley, rat, plasma, 10 mg/kg, rivaroxaban 10 mg/kg oral single dose, rats, control group (vehicle, no ticagrelor), n=5, mean ± SD): 1060 ± 291 ng·h/mL | AUC(0-inf) [7, 15]: 3580 ± 736 ng·h/mL | Cmax [7, 15]: 691 ± 238 ng/mL | half-life [7, 15]: 307 ± 99 min | MRT inf [7, 15]: 5.97 ± 1.11 h | MRT last [7, 15]: 5.18 ± 0.91 h | AUC(0-inf) [7, 16]: 1070 ± 299 ng·h/mL | Cmax [7, 16]: 221 ± 53.3 ng/mL | half-life [7, 16]: 158 ± 43.2 min | MRT inf [7, 16]: 4.41 ± 0.79 h | MRT last [7, 16]: 4.32 ± 0.66 h | AUC(0-t) ([7]; male, Sprague-Dawley, rat, plasma, 10 mg/kg, rivaroxaban 10 mg/kg oral, rats with ticagrelor pre-treatment 10 mg/kg/day for 14 days): 3480 ± 754 ng·h/mL | AUC(0-inf) [7, 17]: 1070 ± 299 ng·h/mL | AUC(0-t) [7, 17]: 1060 ± 291 ng·h/mL | AUC(0-inf) ([7]; male, Sprague-Dawley, rat, plasma, rivaroxaban 10 mg/kg oral, rats with ticagrelor pre-treatment 10 mg/kg/day for 14 days): 3580 ± 736 ng·h/mL | CLint scaled ([7]; male, Sprague-Dawley, rat, plasma, rivaroxaban 10 mg/kg oral, rats pre-treated with ticagrelor 10 mg/kg/day for 14 days): 48.2 mL/min/kg | Tmax [7, 18]: 2 ± 0.71 h | CLint scaled [7, 18]: 166 mL/min/kg | increase of AUC value of rivaroxaban [7, 19]: 3.3 fold | increase of Cmax value of rivaroxaban [7, 19]: 3.1 fold | T max [7, 20]: 2.00 ± 0.71 h | Vz [7, 20]: 21.89 ± 9.00 L/kg | Vz ([7]; rivaroxaban 10 mg/kg oral, rats, control group (no ticagrelor)): 36.23 ± 5.48 L/kg | Vmax [9]: 3.37 pmol/min/mg | Km at 30 min [10]: 19.1 µM
SMILES: O=C(NC[C@H]1CN(c2ccc(N3CCOCC3=O)cc2)C(=O)O1)c1ccc(Cl)s1 [Rivaroxaban]
increase in Cmax value of rivaroxaban [4]: 1.7 fold | increase in the mean AUC value of rivaroxaban [4]: 2.6 fold | risk of intracranial hemorrhage [5]: 0.6% | risk of major bleeding [5]: 2.1% | share of total rivaroxaban elimination involving CYP3A4 [6]: about 18% | reduction in the systemic exposure of rivaroxaban [8]: 50% | share of total rivaroxaban elimination involving CYP2J2 [11]: about 14% | time to peak plasma concentration (Tmax) [12]: 1.5 to 4 h

SMILES: C[C@H]1O[C@@H](O[C@H]2[C@@H](O)C[C@H](O[C@H]3[C@@H](O)C[C@H](O[C@H]4CC[C@@]5(C)[C@H](CC[C@@H]6[C@@H]5C[C@@H](O)[C@]5(C)[C@@H](C7=CC(=O)OC7)CC[C@]65O)C4)O[C@@H]3C)O[C@@H]2C)C[C@H](O)[C@@H]1O [digoxin]
increase of digoxin AUC [13]: 28% | increase of digoxin Cmax [13]: 75%

SMILES: C#C[C@]1(O)CC[C@H]2[C@@H]3CCc4cc(O)ccc4[C@H]3CC[C@@]21C [ethinyloestradiol]
increase of AUC0–t of ethinyloestradiol [14]: 20% | increase of Cmax of ethinyloestradiol [14]: 31% | increase of Cmin of ethinyloestradiol [14]: 20%
